Reference: patent US20230381192A1, “METHODS FOR CONTROLLING AND PREDICTING RECOVERY AFTER NMBA ADMINISTRATION” (Cornell University, priority 2020, published 2023)
Where two headings read alike, the source gives them in different places.

Experiments:
[1] = Phase I pharmacokinetics after single IV bolus; format: in vivo; conditions: both sexes, human, plasma, iv
Protocol: (Abstract available in the final supplement of the Journal of Anesthesia and Analgesia, May 2020 (Volume 30, Issue pages 73-74), which is incorporated herein by reference. Healthy volunteers (n=34) aged 18 to 55 of either gender gave informed consent to an 1RB-approved Phase I protocol, NMB was measured by mechanomyography during sevoflurane (0.5 MAC)/N20 (70%) anesthesia. Each volunteer received a single IV bolus of RP1000,

[2] = test system: monkeys; conditions: cited from earlier work

Q: For `COc1ccc(C[C@@H]2c3cc(OC)c(OC)cc3CC[N@@+]2(C)CCCOC(=O)/C=C/C(=O)OCCC[N@+]2(C)CCc3cc(OC)c(OC)cc3[C@H]2Cc2ccc(OC)c(OC)c2)cc1OC.[Cl-].[Cl-]` [RP1000], which Vd ([1]; 0.04 mg/kg, single IV bolus 0.04 mg/kg (n = 6), read-out: Vss (volume at steady state), Geometric Mean) is on record?
A: The Vd was 9.33 L.

Q: And the Vd ([1]; 0.04 mg/kg, single IV bolus 0.04 mg/kg (n = 6), read-out: Vss (volume at steady state), Mean)?
A: The Vd was 9.54 L.

Q: And the half-life ([1]; 0.04 mg/kg, single IV bolus 0.04 mg/kg (n = 6), read-out: t1/2 (terminal elimination half-life), Geometric Mean)?
A: Its half-life is 27.4 min.

Q: And the half-life ([1]; 0.04 mg/kg, single IV bolus 0.04 mg/kg (n = 6), read-out: t1/2 (terminal elimination half-life), Mean (SD))?
A: Its half-life is 29 min.

Q: What about the AUC(0-t) ([1]; 0.06 mg/kg, single IV bolus 0.06 mg/kg (n = 6), read-out: AUClast, Geometric Mean (converted)) of the same compound?
A: Its AUC(0-t) is 160 ng·h/mL.

Q: What about the AUC(0-t) ([1]; 0.06 mg/kg, single IV bolus 0.06 mg/kg (n = 6), read-out: AUClast, Mean (converted)) of the same compound?
A: The AUC(0-t) was 153 ng·h/mL.

Q: What about the clearance ([1]; 0.06 mg/kg, single IV bolus 0.06 mg/kg (n = 6), read-out: CL (clearance), Geometric Mean) of the same compound?
A: The clearance was 399 mL/min.

Q: What about the clearance ([1]; 0.06 mg/kg, single IV bolus 0.06 mg/kg (n = 6), read-out: CL (clearance), Mean (SD)) of the same compound?
A: The clearance was 409 mL/min.

Q: And the Cmax ([1]; 0.06 mg/kg, single IV bolus 0.06 mg/kg (n = 6), read-out: Cmax, Geometric Mean)?
A: The Cmax was 2600 ng/mL.

Q: And the Cmax ([1]; 0.06 mg/kg, single IV bolus 0.06 mg/kg (n = 6), read-out: Cmax, Mean)?
A: The Cmax was 3070 ng/mL.

Q: And the Vd ([1]; 0.06 mg/kg, single IV bolus 0.06 mg/kg (n = 6), read-out: Vss (volume at steady state), Geometric Mean)?
A: Its Vd is 8.8 L.

Q: And the Vd ([1]; 0.06 mg/kg, single IV bolus 0.06 mg/kg (n = 6), read-out: Vss (volume at steady state), Mean)?
A: The Vd was 8.92 L.

Q: And the half-life ([1]; 0.06 mg/kg, single IV bolus 0.06 mg/kg (n = 6), read-out: t1/2 (terminal elimination half-life), Geometric Mean)?
A: Its half-life is 26.3 min.

Q: What about the half-life ([1]; 0.06 mg/kg, single IV bolus 0.06 mg/kg (n = 6), read-out: t1/2 (terminal elimination half-life), Mean (SD)) of the same compound?
A: The half-life was 26 min.

Q: And the AUC(0-t) ([1]; 0.08 mg/kg, single IV bolus 0.08 mg/kg (n = 6), read-out: AUClast, Geometric Mean (converted))?
A: The AUC(0-t) was 248 ng·h/mL.

Q: What about the AUC(0-t) ([1]; 0.08 mg/kg, single IV bolus 0.08 mg/kg (n = 6), read-out: AUClast, Mean (converted)) of the same compound?
A: Its AUC(0-t) is 235 ng·h/mL.

Q: And the clearance ([1]; 0.08 mg/kg, single IV bolus 0.08 mg/kg (n = 6), read-out: CL (clearance), Geometric Mean)?
A: The clearance was 387 mL/min.

Q: And the clearance ([1]; 0.08 mg/kg, single IV bolus 0.08 mg/kg (n = 6), read-out: CL (clearance), Mean (SD))?
A: Its clearance is 390 mL/min.

Q: And the Cmax ([1]; 0.08 mg/kg, single IV bolus 0.08 mg/kg (n = 6), read-out: Cmax, Geometric Mean)?
A: Its Cmax is 3610 ng/mL.

Q: What about the Cmax ([1]; 0.08 mg/kg, single IV bolus 0.08 mg/kg (n = 6), read-out: Cmax, Mean) of the same compound?
A: Its Cmax is 4040 ng/mL.

Q: And the Vd ([1]; 0.08 mg/kg, single IV bolus 0.08 mg/kg (n = 6), read-out: Vss (volume at steady state), Geometric Mean)?
A: Its Vd is 9.58 L.

Q: And the Vd ([1]; 0.08 mg/kg, single IV bolus 0.08 mg/kg (n = 6), read-out: Vss (volume at steady state), Mean)?
A: The Vd was 9.65 L.

Q: What about the half-life ([1]; 0.08 mg/kg, single IV bolus 0.08 mg/kg (n = 6), read-out: t1/2 (terminal elimination half-life), Geometric Mean) of the same compound?
A: The half-life was 27 min.

Q: What about the half-life ([1]; 0.08 mg/kg, single IV bolus 0.08 mg/kg (n = 6), read-out: t1/2 (terminal elimination half-life), Mean (SD)) of the same compound?
A: Its half-life is 27 min.

Q: What about the AUC(0-t) ([1]; 0.1 mg/kg, single IV bolus 0.10 mg/kg (n = 6), read-out: AUClast, Geometric Mean (converted)) of the same compound?
A: The AUC(0-t) was 303 ng·h/mL.

Q: What about the AUC(0-t) ([1]; 0.1 mg/kg, single IV bolus 0.10 mg/kg (n = 6), read-out: AUClast, Mean (converted)) of the same compound?
A: The AUC(0-t) was 291 ng·h/mL.

Q: What about the clearance ([1]; 0.1 mg/kg, single IV bolus 0.10 mg/kg (n = 6), read-out: CL (clearance), Geometric Mean) of the same compound?
A: The clearance was 438 mL/min.

Q: And the clearance ([1]; 0.1 mg/kg, single IV bolus 0.10 mg/kg (n = 6), read-out: CL (clearance), Mean (SD))?
A: Its clearance is 443 mL/min.

Q: And the Cmax ([1]; 0.1 mg/kg, single IV bolus 0.10 mg/kg (n = 6), read-out: Cmax, Geometric Mean)?
A: Its Cmax is 5020 ng/mL.

Q: And the Cmax ([1]; 0.1 mg/kg, single IV bolus 0.10 mg/kg (n = 6), read-out: Cmax, Mean)?
A: The Cmax was 5270 ng/mL.

Q: What about the Vd ([1]; 0.1 mg/kg, single IV bolus 0.10 mg/kg (n = 6), read-out: Vss (volume at steady state), Geometric Mean) of the same compound?
A: The Vd was 9.02 L.

Q: And the Vd ([1]; 0.1 mg/kg, single IV bolus 0.10 mg/kg (n = 6), read-out: Vss (volume at steady state), Mean)?
A: The Vd was 9.12 L.

Q: And the half-life ([1]; 0.1 mg/kg, single IV bolus 0.10 mg/kg (n = 6), read-out: t1/2 (terminal elimination half-life), Geometric Mean)?
A: Its half-life is 23.9 min.

Q: And the half-life ([1]; 0.1 mg/kg, single IV bolus 0.10 mg/kg (n = 6), read-out: t1/2 (terminal elimination half-life), Mean (SD))?
A: Its half-life is 24 min.

Q: And the AUC(0-t) ([1]; 0.14 mg/kg, single IV bolus 0.14 mg/kg (n = 4), read-out: AUClast, Geometric Mean (converted))?
A: Its AUC(0-t) is 507 ng·h/mL.

Q: And the AUC(0-t) ([1]; 0.14 mg/kg, single IV bolus 0.14 mg/kg (n = 4), read-out: AUClast, Mean (converted))?
A: Its AUC(0-t) is 481 ng·h/mL.

Q: And the clearance ([1]; 0.14 mg/kg, single IV bolus 0.14 mg/kg (n = 4), read-out: CL (clearance), Geometric Mean)?
A: The clearance was 366 mL/min.

Q: And the clearance ([1]; 0.14 mg/kg, single IV bolus 0.14 mg/kg (n = 4), read-out: CL (clearance), Mean (SD))?
A: Its clearance is 368 mL/min.

Q: And the Cmax ([1]; 0.14 mg/kg, single IV bolus 0.14 mg/kg (n = 4), read-out: Cmax, Geometric Mean)?
A: Its Cmax is 9120 ng/mL.

Q: And the Cmax ([1]; 0.14 mg/kg, single IV bolus 0.14 mg/kg (n = 4), read-out: Cmax, Mean)?
A: Its Cmax is 10300 ng/mL.

Q: What about the Vd ([1]; 0.14 mg/kg, single IV bolus 0.14 mg/kg (n = 4), read-out: Vss (volume at steady state), Geometric Mean) of the same compound?
A: Its Vd is 7.84 L.

Q: What about the Vd ([1]; 0.14 mg/kg, single IV bolus 0.14 mg/kg (n = 4), read-out: Vss (volume at steady state), Mean) of the same compound?
A: The Vd was 7.96 L.

Q: What about the half-life ([1]; 0.14 mg/kg, single IV bolus 0.14 mg/kg (n = 4), read-out: t1/2 (terminal elimination half-life), Geometric Mean) of the same compound?
A: The half-life was 24.8 min.

Q: What about the half-life ([1]; 0.14 mg/kg, single IV bolus 0.14 mg/kg (n = 4), read-out: t1/2 (terminal elimination half-life), Mean (SD)) of the same compound?
A: Its half-life is 25 min.

Q: What about the “effects on autonomic or circulatory systems” value [2] of the same compound?
A: The value was “no observed ill-elects on autonomic or circulatory systems”.
